Laboratory results: patent US6331646A, “Amorphous N-[N-(3,3-dimethylbutyl)-L-α-aspartyl]-L-phenylalanine 1-methyl ester” (The NutraSweet Co., priority 1999, dated 2001)
Where two headings read alike, the source gives them in different places.

Experiments:
[1] = Rate of dissolution compared to neotame monohydrate; type: physicochemical; settings: in a variety of solvents commonly used in the food industry; FIG. 3 and FIG. 4 at 20° C.
Procedure: (§1) 25 grams of neotame was spread out equally on six containers and heated slowly past its melting point of about 82° C. until a temperature of about 92° C. was reached. […] Once 92° C. was reached, all of the neotame was melted. The containers containing the neotame were removed from the oven and allowed to cool to room temperature, about 23° C. The neotame was removed from the containers, and ground to a […] powder with a mortar and pestle. The x-ray diffraction pattern of the resulting amorphous neotame is illustrated in FIG. 1. Rates of dissolution and solubility measurements were then determined in several different solvent systems (deionized water; 0.1M phosphate (pH3) in water; 10:90 Ethanol (EtOH):H2 O; and 50:50 Ethyl Acetate (EtAc):Hexane) and compared to the conventional form of the neotame monohydrate. The solubility results are set forth below:
FIG. 3 illustrates a comparison of the dissolution of the amorphous neotame of Example 1 with neotame monohydrate in deionized water at 20° C. FIG. 4 illustrates a similar comparison in 0.1 M phosphate buffer.

Sweetening potency = settings: amorphous neotame; "is believed to have"
[2] = Solubility measurements in several solvent systems; type: physicochemical; settings: for Solubility, 10:90 EtOH:H2 O: 10:90 Ethanol (EtOH):H2 O; for Solubility, 50:50 EtAc:Hexane: 50:50 Ethyl Acetate (EtAc):Hexane
Procedure: as §1, with “monohydrate.” for “monohydrate. The solubility results are set forth below:”

[3] = known sweetener neotame; cited from earlier work

rate of dissolution compared to that of the monohydrate form [1]	Solubility, 0.1 M Phosphate pH3 ([2]; 0.1M phosphate (pH3) in water)	Solubility, 10:90 EtOH:H2 O [2]	Solubility, 50:50 EtAc:Hexane [2]	Solubility, Water ([2]; deionized water)	solubility compared to that of the monohydrate form ([2]; in a variety of solvents commonly used in the food industry)	solubility ([2]; 0.1 m phosphate, pH 3, 0.1M phosphate (pH3) in water, read-out: Solubility, 0.1 M Phosphate pH3) [mg/mL]	solubility ([2]; water, deionized water, read-out: Solubility, Water) [mg/mL]	SMILES	sweetening potency relative to aspartame (believed) (Sweetening potency)	sweetening potency relative to aspartame [3]	sweetening potency relative to sucrose [3]
reduced rate of dissolution	1.49 grams of neotame/100 grams sol	1.57 grams of neotame/100 grams sol	3.07 grams of neotame/100 grams sol	1.35 grams of neotame/100 grams sol	higher solubility	–	–	COC(=O)[C@H](Cc1ccccc1)NC(=O)[C@H](CC(=O)O)NCCC(C)(C)C [Example 1, amorphous N-[N-(3,3-dimethylbutyl)-L-α-aspartyl]-L-phenylalanine 1-methyl ester]	around 40 times that of aspartame	–	–
–	–	1.55 grams of neotame/100 grams sol	1.29 grams of neotame/100 grams sol	–	–	13.5	12.8	COC(=O)[C@H](Cc1ccccc1)NC(=O)[C@H](CC(=O)O)NCCC(C)(C)C [Neotame Monohydrate, N-[N-(3,3-dimethylbutyl)-L-α-aspartyl]-L-phenylalanine 1-methyl ester]	–	–	–
–	–	–	–	–	–	–	–	COC(=O)[C@H](Cc1ccccc1)NC(=O)[C@H](CC(=O)O)NCCC(C)(C)C [Neotame, N-[N-(3,3-dimethylbutyl)-L-α-aspartyl]-L-phenylalanine 1-methyl ester]	–	about 40 times that of aspartame	about 8,000 times that of sucrose
